Reference: patent US11291674B2 (CALITHERA BIOSCIENCES, INC., priority 2016, dated 2022)
Values joined by “and” are separate entries in the source; they are usually repeats but may differ in a detail not shown here. Equal values may be shown once.

Target: T1, Recombinant human Arg2 (Homo sapiens, UniProt P78540)
T1 construct: Recombinant human arginase 2 (Arg2) comprising amino acids […] was purchased from US Biological; purchased US Biological
T1 sequence (P78540 23-354): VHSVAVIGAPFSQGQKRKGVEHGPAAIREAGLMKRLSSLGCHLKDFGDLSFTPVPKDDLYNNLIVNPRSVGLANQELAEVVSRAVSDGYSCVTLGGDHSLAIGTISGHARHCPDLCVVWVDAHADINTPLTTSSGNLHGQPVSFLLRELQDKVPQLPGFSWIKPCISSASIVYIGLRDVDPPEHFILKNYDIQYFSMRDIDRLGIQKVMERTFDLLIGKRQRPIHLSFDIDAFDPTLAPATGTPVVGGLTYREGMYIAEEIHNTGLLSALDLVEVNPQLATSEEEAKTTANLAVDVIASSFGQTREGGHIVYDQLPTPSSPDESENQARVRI
Test: Recombinant arginase activity assay, Arg2
Type: biochemical
Conditions: mean (SD), N=2, 20 mM L-arginine
Description: Recombinant arginase activity assays. […] Recombinant human arginase 2 (Arg2) comprising amino acids […] was purchased from US Biological (Salem, Mass.).
Standard deviations are indicated in parentheses. […] N/A=not applicable.

C[C@H](N)C(=O)N1C[C@H](CCCB(O)O)[C@](N)(C(=O)O)C1 [arginase inhibitor]
IC50: 274 nM and 296 nM
